According to US7517658B2, “Methods for preparing compositions using a SNORF33 receptor” (H. Lundbeck A/S, priority 1999, dated 2009):

What was measured:
[1] = target: T1, rSNORF33 (Rattus norvegicus, UniProt Q923Y9); assay: Cl- currents in Xenopus oocytes expressing rSNORF33 and CFTR (voltage clamp); format: cell-based; details: for EC50: oocytes expressing rSNORF33 and CFTR, -80 mV, mean ± S.E.M., read-out: Calculated EC50, Cl- current
Protocol: Female Xenopus laevis (Xenopus-1, Ann Arbor, Mich.) were anesthetized in 0.2% tricain (3-aminobenzoic acid ethyl ester, Sigma Chemical Corp.) and a portion of ovary was removed using aseptic technique (Quick and Lester, 1994). Oocytes were defolliculated, using 3 mg/ml collagenase (Worthington Biochemical Corp., Freehold, N.J.) in a solution containing 82.5 mM NaCl, 2 mM KCl, 1 mM MgCl2 and 5 mM HEPES, pH 7.5, and injected (Nanoject, Drummond Scientific, Broomall, Pa.) 24 h later with 50-70 nl of individual mRNAs or mRNA mixtures (see below).
Elevation of intracellular cAMP is monitored in oocytes by expression of the cystic fibrosis transmembrane conductance regulator (CFTR) whose Cl^−-selective pore opens in response to phosphorylation by protein kinase A (Riordan, 1993). To prepare RNA transcripts for expression in oocytes, a template was created by PCR using 5′ and 3′ primers derived from the published sequence of the CFTR gene (Riordan, 1993). The 5′ primer included the sequence coding for T7 polymerase so that transcripts could be generated directly from the PCR products without cloning. Oocytes were injected with 10 ng of CFTR mRNA in addition to 10-15 ng mRNA for SNORF33. Electrophysiological recordings were made after a 2-3 day incubation at 18° C.
Dual electrode voltage clamp (“GeneClamp”, Axon Instruments Inc., Foster City, Calif.) was performed using 3 M KCl-filled glass microelectrodes having resistances of 1-3 Mohms. Unless otherwise specified, oocytes were voltage clamped at a holding potential of −80 mV. During recordings, oocytes were bathed in continuously flowing (1-3 ml/min) medium containing 96 mM NaCl, 2 mM KCl, 1.8 mM CaCl2, 1 mM MgCl2, and 5 mM HEPES, pH 7.5 (ND96). […] Experiments were carried out at room temperature. All values are expressed as mean±standard error of the mean.

[2] = target: T1, rSNORF33; assay: Intracellular cAMP release in rSNORF33-transfected COS-7 cells; format: cell-based; design: expressed in transfected cells; host or cells: COS-7 (transient); details: transiently transfected COS-7 cells; 3–8 experiments; read-out: Mean EC50 ± S.E.M., stimulation of rSNORF33 measured by intracellular cAMP release
Protocol: The receptor-mediated stimulation or inhibition of cyclic AMP (cAMP) formation may be assayed in cells expressing the mammalian receptors. Cells are plated in 96-well plates or other vessels and preincubated in a buffer such as HEPES buffered saline (NaCl (150 mM), CaCl2 (1 mM), KCl (5 mM), glucose (10 mM)) supplemented with a phosphodiesterase inhibitor such as 5 mM theophylline, with or without protease inhibitor cocktail (For example, a typical inhibitor cocktail contains 2 μg/ml aprotinin, […] leupeptin, and 10 μg/ml phosphoramidon.) for 20 min at 37° C., in 5% CO2. Test compounds are added with or without […] forskolin and incubated for an additional 10 min at 37° C. The medium is then aspirated and the reaction stopped by the addition of 100 mM HCl or other methods. The plates are stored at 4° C. for 15 min, and the cAMP content in the stopping solution is measured by radioimmunoassay. Radioactivity may be quantified using a gamma counter equipped with data reduction software. Specific modifications may be performed to optimize the assay for the receptor or to alter the detection method of cAMP.
COS-7 cells were transiently transfected with rSNORF33 gene using the calcium phosphate method and plated in 96-well plates. 48 hours after transfection, cells were washed twice with Dulbecco's phosphate buffered saline (PBS) supplemented with 10 mM HEPES, 10 mM glucose, 5 mM theophylline and 10 μM pargyline and were incubated in the same buffer for 20 min at 37° C., in […] 5% CO2. Test compounds were added and cells were incubated for an additional 10 min at 37° C. The medium was then aspirated and the reaction stopped by the addition of 100 mM HCl. The plates were stored at −20° C. for 2-5 days. For cAMP measurement, plates were thawed and the cAMP content in each well was measured by radioimmunoassay cAMP Scintillation Proximity Assay (Amersham Pharmacia Biotech). Radioactivity was quantified using microbeta Trilux counter (Wallac).

T1 sequence (Q923Y9 whole entry): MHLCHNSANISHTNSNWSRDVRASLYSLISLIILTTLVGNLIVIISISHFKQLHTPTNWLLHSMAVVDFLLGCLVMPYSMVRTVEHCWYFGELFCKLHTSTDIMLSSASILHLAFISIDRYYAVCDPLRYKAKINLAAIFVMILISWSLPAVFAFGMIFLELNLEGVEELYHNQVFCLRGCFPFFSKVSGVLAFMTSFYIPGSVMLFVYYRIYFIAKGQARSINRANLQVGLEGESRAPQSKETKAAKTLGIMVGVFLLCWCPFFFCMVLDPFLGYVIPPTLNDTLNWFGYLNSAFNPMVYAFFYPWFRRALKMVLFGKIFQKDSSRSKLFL

With `NCCc1c[nH]c2ccccc12` [Tryptamine (T), Tryptamine] the “Cl- currents elicited” value ([1]; 1-100 μM) was “produced this activity”, the EC50 [1] was 54 ± 10 nM and the EC50 [2] was 17 ± 4 nM.

For `NCCc1ccc(O)cc1` [Tyramine (TYR), Tyramine], the “Cl- currents elicited” value ([1]; 1-100 μM) was “produced this activity”, the EC50 [1] was 37 ± 4.4 nM and the EC50 [2] was 9 ± 6 nM.

`NCC(O)c1ccc(O)cc1` (stereo not drawn) [Octopamine (OCT), Octopamine] was tested, and the “Cl- currents elicited” value ([1]; at 100 μM) was “elicited Cl^− currents”, the EC50 [1] was 635 ± 151 nM and the EC50 [2] was 135 ± 54 nM.
